Results: patent US20250306032A1, “METHODS FOR IDENTIFYING REACTIVE FUNCTIONAL CYSTEINES IN NUCLEAR PROTEINS” (Talus Bioscience, Inc., priority 2022, published 2025)

Tests used:
Format in all cases: cell-based
CTCF = molecular target: T1, CTCF (Homo sapiens, UniProt P49711); assay: Movement of transcription factor between ChESS fractions after NM-IAA treatment; settings: ChESS fractionation after NM-IAA treatment
T1 construct: endogenous in cells; host or cells: THP-1
T1 sequence (P49711 1-727): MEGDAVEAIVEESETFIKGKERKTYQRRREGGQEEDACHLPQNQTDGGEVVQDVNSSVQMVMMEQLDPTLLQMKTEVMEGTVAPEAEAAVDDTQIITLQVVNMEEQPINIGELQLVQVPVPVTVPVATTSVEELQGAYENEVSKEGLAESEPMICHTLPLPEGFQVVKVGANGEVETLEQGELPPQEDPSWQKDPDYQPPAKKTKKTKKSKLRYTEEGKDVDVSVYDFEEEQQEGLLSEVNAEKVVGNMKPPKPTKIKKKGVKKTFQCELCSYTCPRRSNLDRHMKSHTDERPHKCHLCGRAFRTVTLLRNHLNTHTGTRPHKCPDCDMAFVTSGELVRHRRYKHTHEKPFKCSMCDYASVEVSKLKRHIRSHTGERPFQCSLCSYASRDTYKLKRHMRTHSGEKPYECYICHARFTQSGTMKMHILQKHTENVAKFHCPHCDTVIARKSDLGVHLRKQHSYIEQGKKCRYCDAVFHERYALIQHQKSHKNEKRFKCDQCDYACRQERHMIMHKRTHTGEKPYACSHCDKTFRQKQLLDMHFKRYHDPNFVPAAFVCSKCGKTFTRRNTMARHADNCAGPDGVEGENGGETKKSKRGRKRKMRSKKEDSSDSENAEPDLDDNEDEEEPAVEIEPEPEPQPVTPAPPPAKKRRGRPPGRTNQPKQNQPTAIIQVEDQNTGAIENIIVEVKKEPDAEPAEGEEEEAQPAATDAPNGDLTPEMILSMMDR
Experimental: Five million cells, from leukemia, myeloma, or other cancer cell cultures, were treated with 12.5 μM n-methyl iodoacetamide (NM-IAA) in triplicate for 4 hours. The cells were then washed with phosphate-buffered saline (PBS) and fractionated using chromatin enriching salt separation (ChESS). ChESS used four sequential buffer washes of increasing ionic strength to separate the cellular proteome into cytosolic-, nucleoplasm-, euchromatin-, and heterochromatin-enriched fractions, as outlined in FIG. 1. Each of the fractions was digested using trypsin and analyzed using a data-dependent acquisition (DDA) strategy on an Evosep One-ThermoFisher Exploris 480 orbitrap platform. The results were analyzed using the Comet search tool with the mass of the NM-IAA addition as a variable modification on cysteine residues, then filtered at a 1% false discovery rate with Peptide Prophet or mokapot. DDA results were quantified with FlashLFQ. Each sample was also acquired using a data independent acquisition (DIA) approach on the same mass spectrometer in order to accurately quantify the peptides and proteins in each sample. DIA samples were analyzed using EncyclopeDIA with a spectral library that was generated using the results from DDA analysis and Comet search results or using a predicted spectral library from Prosit. […]

[1] = molecular target: T2, CCCTC-binding factor (CTCF) (Homo sapiens, UniProt P49711); assay: Reactive cysteine identification by ChESS fractionation and mass spectrometry in THP-1 cells; settings: 12.5 μM, 4 hours, mass spectrometry
T2 construct: endogenous in cells; host or cells: THP-1
T2 sequence (P49711 1-727): T1 sequence (P49711 1-727)
Experimental: Five million cells, from leukemia, myeloma, or other cancer cell cultures, were treated with 12.5 μM n-methyl iodoacetamide (NM-IAA) in triplicate for 4 hours. The cells were then washed with phosphate-buffered saline (PBS) and fractionated using chromatin enriching salt separation (ChESS). ChESS used four sequential buffer washes of increasing ionic strength to separate the cellular proteome into cytosolic-, nucleoplasm-, euchromatin-, and heterochromatin-enriched fractions, as outlined in FIG. 1. Each of the fractions was digested using trypsin and analyzed using a data-dependent acquisition (DDA) strategy on an Evosep One-ThermoFisher Exploris 480 orbitrap platform. The results were analyzed using the Comet search tool with the mass of the NM-IAA addition as a variable modification on cysteine residues, then filtered at a 1% false discovery rate with Peptide Prophet or mokapot. DDA results were quantified with FlashLFQ. Each sample was also acquired using a data independent acquisition (DIA) approach on the same mass spectrometer in order to accurately quantify the peptides and proteins in each sample. DIA samples were analyzed using EncyclopeDIA with a spectral library that was generated using the results from DDA analysis and Comet search results or using a predicted spectral library from Prosit.
THP-1 acute monocytic leukemia cells were grown to 95% viability. […]

[2] = molecular target: T3, poly(ADP-ribose) polymerase-1 (PARP1) (Homo sapiens, UniProt P09874); assay: Reactive cysteine identification with Biotin-IA in THP-1 cells (mass spectrum); settings: 10 μM
T3 construct: endogenous in cells; host or cells: THP-1
T3 sequence (P09874 whole entry): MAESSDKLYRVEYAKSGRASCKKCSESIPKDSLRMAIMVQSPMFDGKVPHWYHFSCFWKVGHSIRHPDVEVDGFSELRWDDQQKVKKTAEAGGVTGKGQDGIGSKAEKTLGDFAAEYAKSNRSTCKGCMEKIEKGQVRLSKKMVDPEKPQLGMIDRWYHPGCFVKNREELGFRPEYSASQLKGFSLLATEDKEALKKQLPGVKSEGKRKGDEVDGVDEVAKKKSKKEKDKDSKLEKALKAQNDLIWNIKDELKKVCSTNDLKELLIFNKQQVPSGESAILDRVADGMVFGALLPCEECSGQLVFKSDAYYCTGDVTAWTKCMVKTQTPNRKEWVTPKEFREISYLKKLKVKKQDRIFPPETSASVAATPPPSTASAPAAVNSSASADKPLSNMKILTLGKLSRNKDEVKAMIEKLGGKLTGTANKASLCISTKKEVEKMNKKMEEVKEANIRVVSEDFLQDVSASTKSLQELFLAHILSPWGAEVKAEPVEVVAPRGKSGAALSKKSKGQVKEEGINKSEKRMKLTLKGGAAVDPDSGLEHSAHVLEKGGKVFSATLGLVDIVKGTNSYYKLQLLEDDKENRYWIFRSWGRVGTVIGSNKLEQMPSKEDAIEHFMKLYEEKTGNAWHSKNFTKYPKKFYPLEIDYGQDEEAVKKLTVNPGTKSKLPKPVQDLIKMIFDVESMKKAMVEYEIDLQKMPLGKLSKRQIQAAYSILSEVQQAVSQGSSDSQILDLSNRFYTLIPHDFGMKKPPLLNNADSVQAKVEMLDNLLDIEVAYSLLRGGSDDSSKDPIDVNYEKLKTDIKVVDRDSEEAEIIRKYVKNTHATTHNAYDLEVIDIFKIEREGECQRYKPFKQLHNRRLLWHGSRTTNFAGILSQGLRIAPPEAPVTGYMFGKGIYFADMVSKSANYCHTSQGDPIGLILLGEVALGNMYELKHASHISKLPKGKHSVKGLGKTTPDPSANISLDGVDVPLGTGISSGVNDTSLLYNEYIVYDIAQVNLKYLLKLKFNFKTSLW
Experimental: The mass shift associated with NM-IAA is 71.03 Dalton (Da). […] THP-1 cells were treated with 10 μM biotin polyethyleneoxide iodoacetamide (Biotin-IA). Biotin-IA reacted with a cysteine in the peptide SDAYYCTGDVTAWTK (SEQ ID NO: 2) from the poly(ADP-ribose) polymerase-1 (PARP1) protein.

| modification of the cysteine in CTCF peptide YHDPNFVPAAFVCSK (SEQ ID NO: 1) [1] | Molecule | CTCF localisation in ChESS fractions after NM-IAA modification (CTCF) | reaction with a cysteine in PARP1 peptide SDAYYCTGDVTAWTK (SEQ ID NO: 2) [2] |
| --- | --- | --- | --- |
| modified | CNC(=O)CI [NM-IAA, n-methyl iodoacetamide] | ejected from heterochromatin and observed in the nucleoplasm fraction |  |
|  | biotin polyethyleneoxide iodoacetamide [Biotin-IA] |  | reacted |
